Read-outs that look alike come from different tables or passages of the source.

Data set [1] has as its system PfATP4-mutant P. falciparum lines and their parents. The settings on record: cited from earlier work.
Data set [2] concerns cipargamin-selected culture A (from Dd2-PfATP4^T418N,P990R). The data set is described as follows: P. falciparum proliferation assay (72 h, fluorescent DNA-intercalating dye). Type of data set: cell-based. The settings on record: Plasmodium falciparum, culture A at end of drug-exposure period, mean ± SEM, n = 3. How it is done:
(§1) For experiments with all other parasites, the effects of compounds of interest on parasite proliferation was measured in 96-well plates containing serial dilutions of the compounds in culture medium, with a fluorescent DNA-intercalating dye used to detect surviving parasites. The assays were initiated with erythrocytes infected with predominantly ring-stage parasites, and the starting parasitaemia and haematocrit were both 1%. […] Fluorescence was measured using a FLUOstar OPTIMA plate reader (BMG LABTECH), with OPTIMA version 2.20R2 and MARS Data Analysis Software version 3.01 R2 (BMG LABTECH).

Data set [3] concerns cipargamin-selected culture B (from Dd2-PfATP4^T418N,P990R). Described as above. Type of data set: cell-based. The note with it: Plasmodium falciparum, culture B at end of drug-exposure period, mean ± SEM, n = 3. The procedure:
as §1

The conditions of data set [4]: clinical trials, sustained periods; cited from earlier work.
Data set [5] concerns MMV665949-selected Culture 1 (from Dd2-Polδ; not cloned). The experiment in a line: P. falciparum proliferation assay (72 h, fluorescent DNA-intercalating dye). Format: cell-based, Plasmodium falciparum. The note with it: Plasmodium falciparum, DD2; MMV665949-selected Culture 1; mean ± SEM, n = 3; read-out: IC50 value. The procedure:
as §1

The term IC50 denotes the concentration needed to halve the response being measured. Take `N#Cc1cc(NC(=O)[C@H]2c3ccccc3C(=O)N(CC(F)(F)F)[C@@H]2c2cccnc2)ccc1F` [(+)-SJ733]: the IC50 is 3.5 µM in data set [1] (genetically engineered parasites bearing L350H in PfATP4), 10 µM in data set [1] (genetically engineered parasites bearing P412T in PfATP4) and 0.075 µM in data set [1] (parental wild-type parasites).
For `C[C@H]1Cc2c([nH]c3cc(Cl)c(F)cc23)[C@@]2(N1)C(=O)Nc1ccc(Cl)cc12` [Cipargamin], the IC50 was 5.9 ± 0.2 µM in data set [2], 6.2 ± 0.2 µM in data set [3] and 0.00142 ± 0.0003 µM in data set [5]. Also, in data set [4], the “concentration reached in human plasma” value is “supramicromolar concentrations”.

Source of the values: article PMC9525273 (Nature Communications, 2022).
